{"source": "paper PMC8648872", "about": "“A host-directed macrocyclic peptide therapeutic for MDR gram negative bacterial infections” (Scientific Reports, 2021)", "key": {"[1]": {"experiment": "Peptide stability in human serum", "format": "in vitro ADME", "settings": "90% (vol/vol) human serum, 37 °C, C18 RP-UPLC with PDA detector, read-out: peptide remaining intact", "procedure": "MTD12813 (final concentration of 100 µg/ml) was added to either 90% human EDTA plasma or 90% human serum and incubated at 37 °C for 48 h. Samples were processed by addition of 10% HOAc and 5% ACN (final concentrations) at time 0 and 48 h, and MTD12813 was quantified by C18 RP-HLPC on an Acquity H-Class UPLC with an analytical PDA detector using Empower 3 software (Waters). All samples were performed with technical replicates and analyzed by UPLC in duplicate and the experiment repeated once. […] A time 0 h sample was collected, and the remaining suspension incubated at 37 °C for 24 h. Samples were processed by addition of 5% formic acid/5% acetonitrile, vortexed, and clarified at 22,000×g for 10 min. Supernatant MTD12813 was then quantified by LC–MS/MS as described in PK section above. All samples were performed with technical replicates and analyzed by LC–MS/MS in duplicate."}, "[2]": {"tested_on": "human whole blood", "experiment": "Cytokine release by human whole blood incubated with live Kp-1705", "format": "cell-based", "settings": "human whole blood 1:10 in RPMI-1640, 1000 CFU/ml Kp-1705, 4 h, 37 °C, ELISA", "procedure": "Log-phase […] grown in TSB were pelleted, washed twice in PBS, and suspended to 1 × 10^5 CFU/ml in RPMI-1640. EDTA-anticoagulated blood collected from a healthy adult human donor was incubated at a final dilution of 1:10 in RPMI-1640 with 1000 CFU/ml of Kp-1705 and varied concentrations of MTD12813 for 4 h 37 °C in 5% CO2 with gentle rocking. Incubation supernatants were frozen at − 80 °C. TNF and IL-6 were quantified by ELISA (Invitrogen KHC3011, KHC0061)."}, "[3]": {"tested_on": "Kp-1705", "experiment": "Challenge with MTD12813-preincubated Kp-1705, survival", "format": "in vivo, BALB/c mice", "procedure": "Cryopreserved Kp-1705 was suspended in PBS to a density of ca. 1 × 10^9 CFU/ml, and incubated with saline or 1.25 µg/ml MTD12813 at room temperature for 1 h. Mice (n = 26) were then infected i.p. with 500 µl of saline- or MTD12813- pretreated Kp-1705, and a third cohort (n = 12) received 500 µl i.p. of 1.25 µg/ml MTD12813 immediately following infection with saline treated Kp-1705. Five mice from each cohort were euthanized 4 h p.i., and peritoneal lavage was collected for bacterial burden determination and cytospin preparation. In vitro antibacterial activity of MTD12813 (1.25 μg/ml) -treated cells (1 h; 37 °C) was determined by plating saline or peptide treated cells on TSA plates. Growth kinetics of saline and MTD12813-treated cells was determined by diluting samples from the 1 h incubation mixtures 1:40 into TSB and monitoring growth (620 nm) for 5.5 h at 37 °C. Antibacterial activity of MTD12813 in PF was determined by i.p. injection of naïve male BALB/c mice (n = 5 per group) with 1.25 mg/kg of MTD12813 or saline i.p. (10 ml/kg). […] Peritoneal fluid was clarified by centrifugation at 1200×g and an aliquot used to quantify MTD12813 by LC–MS/MS, as described above. Antimicrobial activity was determined by incubating PF (9:1 vol/vol) with Kp-1705 at a final density of 3 × 10^7 CFU/ml. […]"}, "[4]": {"experiment": "Single dose pharmacokinetics (plasma and peritoneal fluid)", "format": "in vivo, BALB/c mice", "settings": "both sexes, mouse, ip, 1.25 mg/kg single i.p., LC-MS/MS", "procedure": "Single dose PK of MTD12813 was evaluated by quantifying plasma peptide concentrations following 1.25 mg/kg injections administered i.p. to 2 M/2F BALB/c mice. EDTA plasma was prepared from blood collected aseptically by terminal cardiac puncture. MTD12813 plasma concentrations were determined by reverse-phase liquid chromatography (XBridge phenyl 3.5 µm column, Waters) on an Acquity H-Class UPLC (Waters) with tandem electrospray mass spectroscopy on a Xevo TQ-S running MassLynx V4.1 (Waters). Quantitative mass spectroscopy was performed by multiple-reaction monitoring transition 394.04 > 519.35, with area under the curve determined by TargetLynx (Waters).\nCryopreserved Kp-1705 was suspended in PBS to a density of ca. 1 × 10^9 CFU/ml, and incubated with saline or 1.25 µg/ml MTD12813 at room temperature for 1 h. […] In vitro antibacterial activity of MTD12813 (1.25 μg/ml) -treated cells (1 h; 37 °C) was determined by plating saline or peptide treated cells on TSA plates. Growth kinetics of saline and MTD12813-treated cells was determined by diluting samples from the 1 h incubation mixtures 1:40 into TSB and monitoring growth (620 nm) for 5.5 h at 37 °C. Antibacterial activity of MTD12813 in PF was determined by i.p. injection of naïve male BALB/c mice (n = 5 per group) with 1.25 mg/kg of MTD12813 or saline i.p. (10 ml/kg). […]"}, "[5]": {"tested_on": "plasma cytokines", "experiment": "Plasma cytokines in uninfected (sham infected) mice", "format": "in vivo, BALB/c mice", "settings": "single i.p. 1.25 mg/kg", "procedure": "EDTA-anticoagulated blood was collected aseptically by terminal cardiac puncture and analyzed for complete blood cell count using an Element HT5 hematology analyzer (Heska). Blood plasma and clarified peritoneal lavage were prepared by two-step centrifugation described previously. Plasma cytokine levels were quantified using a mouse-specific MILLIPLEX MAP kit (Millipore Cat# MCYTMAG-70K) as described.\nSupplemental Fig. 3. Transient stimulation of cytokines by MTD12813. Sham infected mice were injected i.p with PBS and treated i.p. 1 h later with 1.25 mg/kg MTD12813 (M) or saline (S). Four or 24 h post sham infection, animals were euthanized and plasma samples quantified by multiplex cytokine analysis. P values calculated using ANOVA with Uncorrected Fisher’s LSD comparing saline and […]"}}, "note": "Where a SMILES comes first, the peptide text is derived from it. Bridges are numbered along the chain shown (N, C = ends)."}
{"compound": "CC[C@H](C)[C@@H]1NC(=O)[C@@H]2CSSC[C@H](NC(=O)[C@H]([C@@H](C)CC)NC(=O)[C@@H]3CSSC[C@H](NC1=O)C(=O)N[C@@H](C(C)C)C(=O)NCC(=O)N[C@@H](CCCNC(=N)N)C(=O)NCC(=O)N3)C(=O)N[C@@H](C(C)C)C(=O)N[C@@H](CCCNC(=N)N)C(=O)N[C@@H](CCCNC(=N)N)C(=O)N[C@@H](CCCNC(=N)N)C(=O)N2", "note": "[MTD12813] (cyclo(CICVGRGCICVRRR); disulfide 1-10, 3-8)", "values": [{"measurement": "remaining at 48 h, 100 µg/ml", "setting": "[1]", "result": "> 95", "unit": "%"}, {"measurement": "release of TNF and IL-6", "setting": "[2]", "result": "concentration-dependently suppressed"}, {"measurement": "survival, equal quantity of peptide given immediately following infection", "setting": "[3]; 0.5 ml of 1.25 µg/ml i.p. after saline-preincubated Kp-1705, n = 12", "result": "no statistically significant protection"}, {"measurement": "survival after challenge with preincubated bacteria", "setting": "[3]; Kp-1705 preincubated 1 h with 1.25 µg/ml MTD12813, 500 µl i.p., n = 26", "result": "protected"}, {"measurement": "Cmax", "setting": "[4]; naïve BALB/c mice (2M/2F per time point), EDTA plasma, read-out: peak plasma concentration (Cmax)", "result": "251 ± 79.8", "unit": "ng/mL"}, {"measurement": "Tmax", "setting": "[4]; naïve male and female BALB/c mice (2M/2F per time point), plasma", "result": 15, "unit": "min"}, {"measurement": "plasma IL-5, IL-6 and CXCL1 versus vehicle", "setting": "[5]; 4 h collection point", "result": "significantly elevated"}, {"measurement": "plasma IL-5, IL-6 and CXCL1", "setting": "[5]; 24 h", "result": "returned to baseline"}]}
